Laboratory results published in patent publication US20240033236A1, “METHODS OF TREATING HERPES VIRAL INFECTION WITH 4-PHENYLBUTYRATE (PBA) OR A PHARMACEUTICALLY ACCEPTABLE SALT THEREOF” (THE BOARD OF TRUSTEES OF THE UNIVERSITY OF ILLINOIS, priority 2020, published 2024).
“Also recorded” adds a separate entry of the source.

Legend:
[1] = test system: HSV-1; test: Plaque assay of HSV-1 infected HCEs treated with ER stress modulators; details: 0.1 MOI HSV-1 K26RFP, 24 hpi, tunicamycin, thapsigargin, Brefeldin-A 1 μM, salubrinal 75 μM, PBA 10 mM
Description: Infected cells suspended in 5004 of Opti-MEM prior to sonication using a probe sonication system at 70% amplitude for 30 seconds. Sonicated cell lysates or ocular/vaginal swabs were used as inoculants for a plaque assay to determine the total amount of infectious virus. In a typical experiment, Vero cells were plated at a seating density of 5×10^4 per well in a 24 well plate overnight. Upon confluency, the cell monolayers were washed with PBS and infected samples were overlaid for a period of 2 h at multiple dilutions. The cells were then washed twice with PBS prior to the addition of DMEM mixed with 0.5% methylcellulose. The plates were incubated for 72 h at 37° C. and 5% CO2 before they were fixed with methanol and stained with crystal violet to determine the extent of plaque formation.
HCEs were infected with 0.1 MOI HSV-1 K26RFP and treated with tunicamycin (1 μM), thapsigargin (1 μM), Brefeldin-A (1 μM), salubrinal (75 μM) or PBA (10 mM). At 24 hpi, cells were imaged for the presence of fluorescent HSV-1 and cells were lysed and used as inoculum on Vero cells to assess viral titer via plaque assay (FIGS. 3A and 3B). […] HCEs infected and treated with PBA with various concentrations were collected 24 hpi and the lysates from these cells were used as inoculum on Vero cells to determine a concentration dependent viral inhibition via a plaque assay (FIG. 3E).

[2] = test system: HSV-1 infected HCEs; test: Survival and syncytia of HSV-1 infected HCEs in cell culture; type: cell-based, human
[3] = test system: HSV; test: Viral protein synthesis in HSV infected cells (immunoblotting); details: in vitro
Description: Cells were scraped and incubated with 1004 of Radioimmunoprecipitation assay (RIPA) buffer with protease phosphatase inhibitor cocktail (Halt™, 78440) for a period of 30 minutes on ice. Whole cell protein extracts (supernatant) were collected by centrifuging the mixture at 13,500 rpm on a bench top refrigerated (4° C.) centrifuge for 15 minutes. Protein samples were then denatured in NuPAGE LDS Sample Buffer (Invitrogen, NP00007) and 6-mercaptoethanol by heating them to 80° C. for 10 min. The denatured protein samples were allowed to cool and equal amounts of protein were added to 4-12% SDS-PAGE loading gels and run at a constant speed of 70V for 3 h. The protein from the gel was then transferred to a nitrocellulose membrane using an iBlot 2 dry transfer machine (Thermofisher Scientific, USA). Nitrocellulose membrane was blocked in 5% nonfat milk/BSA in tris buffer saline (TBS) and 0.1% tween 20 (TBST) for 1 h at room temperature. After the blocking step, membranes were incubated with primary antibody at dilutions of 1:1000 overnight at 4° C. The following day the blots were washed multiple times with TBST before the addition of horse radish peroxidase conjugated secondary IgG antibody at dilutions of 1:10,000 at room temperature. […] The density of the bands was quantified using ImageQuant TL image analysis software (version: 7). GAPDH was measured as a loading control.

[4] = test system: HSV-1 McKrae; test: Murine HSV-1 encephalitis model (intranasal infection); type: in vivo; details: BALB/C mice, intranasal HSV-1 McKrae, compared with untreated
[5] = in vivo, iv; cited from earlier work
[6] = in vivo; cited from earlier work

## O=C(/C=C/c1ccccc1)NC(NC(=S)Nc1cccc2cccnc12)C(Cl)(Cl)Cl (stereo not drawn) [salubrinal]
[1]
  viral replication / viral infection in HSV-1 infected HCEs: increased viral replication
[2]
  survival of the HSV-1 infected cell: form large syncytia and survive longer in cell culture; also recorded: increased survival of the cell

## O=C([O-])CCCc1ccccc1.[Na+] [NaPBA, sodium 4-phenylbutanoate]
[3]
  viral protein synthesis: suppressed viral protein synthesis

## C/C=C(/C)C(=O)O[C@H]1C(C)=C2[C@H]([C@@H]1OC(=O)CCCCCCC)[C@@](C)(OC(C)=O)C[C@H](OC(=O)CCC)[C@@]1(O)[C@H]2OC(=O)[C@@]1(C)O [TG, Thapsigargin]
[1]
  viral replication / viral infection in HSV-1 infected HCEs: inhibited viral replication

## C[C@H]1CCC/C=C/[C@@H]2C[C@H](O)C[C@H]2[C@H](O)/C=C/C(=O)O1 [BA, Brefeldin-A]
[1]
  viral replication / viral infection in HSV-1 infected HCEs: inhibited viral replication

## Nc1nc2c(ncn2COCCO)c(=O)[nH]1 [ACV, acyclovir]
[4]
  appearance and behavior of infected mice: look healthier with no behavioral changes
[5]
  renal toxicity: renal toxicity including acute kidney injury

## Tunicamycin [TM]
[1]
  viral replication / viral infection in HSV-1 infected HCEs: inhibited viral replication

## O=c1[nH]c(=O)n([C@H]2C[C@H](O)[C@@H](CO)O2)cc1C(F)(F)F [TFT, trifluridine]
[6]
  corneal toxicity: corneal toxicity including inflammation, dryness and pain
